Test results from patent US5506221A, “Contignasterol, and related 3-alpha hydroxy-6-alpha hydroxy-7-beta hydroxy-15-keto-14-beta steroids useful as anti-inflammatory and anti-thrombosis agents” (University of British Columbia, priority 1994, dated 1996).
“Also recorded” adds a separate entry of the source.

Tests used:
[1] = test system: allergeninduced challenge; assay: relative potencies of isomers of contignasterol against allergen-induced challenge; conditions: for % Inhibition: allergen-induced challenge; for inhibition: concentration not given
From the text: Table 4 illustrates the relative potencies of different isomers of contignasterol against allergeninduced challenge.

[2] = test system: tracheal tissues; assay: ovalbumin (OA)-induced contraction of tracheal tissues from sensitized guinea pigs; type: cell-based
From the text: We have used the contignasterol as defined in paragraph one of the Summary to block bronchoconstriction induced in guinea pigs. Guinea pigs were sensitized to ovalbumine (OA) that can serve as an antigen. The trachea from these animals after exposure to the antigen (OA) contracted in a similar manner as to in vivo situation.

[3] = test system: human basophils; assay: histamine release from human basophils/leukocytes challenged with anti-human IgE; type: cell-based
Experimental: A major test to confirm the anti-allergic property of contignasterols is the histamine release from human basophils. […] We used […] human blood leukocytes from allergic (allergy to grass pollen) individuals and prepared leukocytes. The leukocytes were then challenged with anti-human IgE for the release of histamine. The leukocytes were either exposed to 50 μg/ml of contignasterol or saline alone (control). The amount of histamine released from the leukocytes was measured using radioenzymatic assay.

[4] = test system: platelets; assay: platelet aggregation in response to collagen; type: cell-based
From the text: (§1) PAF is a local mediator of thrombosis. Similarly, collagen exposure of vessel walls leads to the formation of […] clot in the vessels. Therefore, prevention of the formation of blood clots has direct implication in the treatment of thrombosis and associated cardiovascular diseases.
(§2) PAF and collagen were used at their maximal concentrations to which induced 100% aggregation of platelets.

[5] = test system: platelets; assay: platelet aggregation in response to PAF; type: cell-based
From the text: as §1, §2

[6] = test system: rat mast cells; conditions: induced by anti-IgE; cited from earlier work

For `CC(C)C1CC(O)OC([C@@H](C)[C@H]2CC(=O)[C@@H]3[C@@H]4[C@@H](O)[C@H](O)[C@H]5[C@@H](O)[C@H](O)CC[C@]5(C)[C@H]4CC[C@]23C)C1` (stereo partly shown) [Compound 1, contignasterol], which “% Inhibition” value ([1]; 10 μM) is on record?
The value was 43%.

And the inhibition [1]?
The inhibition was 47%.

And the “Contraction (% of Maximal)” value ([2]; contignasterol 1 μg/ml, ovalbumine 0.001 μg/ml, control 6.6)?
Its value is 0.00 % of Maximal.

And the “Contraction (% of Maximal)” value ([2]; contignasterol 1 μg/ml, ovalbumine 0.01 μg/ml, control 12)?
The value was -7.7 % of Maximal.

What about the “Contraction (% of Maximal)” value ([2]; contignasterol 1 μg/ml, ovalbumine 0.1 μg/ml, control 28.6) of the same compound?
The value was -8.5 % of Maximal.

And the “Contraction (% of Maximal)” value ([2]; contignasterol 1 μg/ml, ovalbumine 1 μg/ml, control 34.0)?
The value was 27.5 % of Maximal.

And the “Contraction (% of Maximal)” value ([2]; contignasterol 1 μg/ml, ovalbumine 10 μg/ml, control 46.0)?
Its value is 30 % of Maximal.

What about the “Contraction (% of Maximal)” value ([2]; contignasterol 1 μg/ml, ovalbumine 100 μg/ml, control 55.7) of the same compound?
Its value is 39 % of Maximal.

And the “Contraction (% of Maximal)” value ([2]; contignasterol 1 μg/ml, ovalbumine 300 μg/ml, control 56)?
Its value is 39.7 % of Maximal.

And the “Contraction (% of Maximal)” value ([2]; contignasterol 10 μg/ml, ovalbumine 0.001 μg/ml, control 6.6)?
The value was 0.00 % of Maximal.

What about the “Contraction (% of Maximal)” value ([2]; contignasterol 10 μg/ml, ovalbumine 0.01 μg/ml, control 12) of the same compound?
Its value is -8.0 % of Maximal.

And the “Contraction (% of Maximal)” value ([2]; contignasterol 10 μg/ml, ovalbumine 0.1 μg/ml, control 28.6)?
Its value is -8.0 % of Maximal.

And the “Contraction (% of Maximal)” value ([2]; contignasterol 10 μg/ml, ovalbumine 1 μg/ml, control 34.0)?
The value was 6.0 % of Maximal.

What about the “Contraction (% of Maximal)” value ([2]; contignasterol 10 μg/ml, ovalbumine 10 μg/ml, control 46.0) of the same compound?
Its value is 16.0 % of Maximal.

And the “Contraction (% of Maximal)” value ([2]; contignasterol 10 μg/ml, ovalbumine 100 μg/ml, control 55.7)?
Its value is 16.6 % of Maximal.

And the “Contraction (% of Maximal)” value ([2]; contignasterol 10 μg/ml, ovalbumine 300 μg/ml, control 56)?
The value was 29.6 % of Maximal.

And the “Contraction (% of Maximal)” value ([2]; contignasterol 50 μg/ml, ovalbumine 0.001 μg/ml, control 6.6)?
The value was 0.00 % of Maximal.

And the “Contraction (% of Maximal)” value ([2]; contignasterol 50 μg/ml, ovalbumine 0.01 μg/ml, control 12)?
The value was 0.0 % of Maximal.

And the “Contraction (% of Maximal)” value ([2]; contignasterol 50 μg/ml, ovalbumine 0.1 μg/ml, control 28.6)?
The value was 0.0 % of Maximal.

What about the “Contraction (% of Maximal)” value ([2]; contignasterol 50 μg/ml, ovalbumine 1 μg/ml, control 34.0) of the same compound?
The value was 5.5 % of Maximal.

And the “Contraction (% of Maximal)” value ([2]; contignasterol 50 μg/ml, ovalbumine 10 μg/ml, control 46.0)?
Its value is 11.1 % of Maximal.

And the “Contraction (% of Maximal)” value ([2]; contignasterol 50 μg/ml, ovalbumine 100 μg/ml, control 55.7)?
The value was 16.6 % of Maximal.

What about the “Contraction (% of Maximal)” value ([2]; contignasterol 50 μg/ml, ovalbumine 300 μg/ml, control 56) of the same compound?
The value was 22 % of Maximal.

What about the “effect on antigen-induced tracheal/airway smooth muscle contraction, in words” value ([2]; tissue pretreated, exposed to antigen (OA)) of the same compound?
The value was “did not significantly contract; also recorded: inhibited airway smooth muscle contraction”.

What about the “inhibition of histamine release from human basophils, in words” value ([3]; basophils present in the blood) of the same compound?
The value was “inhibits histamine release”.

And the “Histamine Release (% of Total)” value ([3]; contignasterol 50 μg/ml, challenge with anti-IgE, control (no drug) 36.4, basal release 9.8)?
The value was 19.0 % of Total.

What about the activity at 5 µg/mL ([4]; Platelet, contignasterol 5 μg/ml, collagen at maximal concentration, read-out: Aggregation (% of Control), Collagen) of the same compound?
Its activity at 5 µg/mL is 70%.

What about the activity at 30 µg/mL ([4]; Platelet, contignasterol 30 μg/ml, collagen at maximal concentration, read-out: Aggregation (% of Control), Collagen) of the same compound?
The activity at 30 µg/mL was 0%.

And the activity at 50 µg/mL ([4]; Platelet, contignasterol 50 μg/ml, collagen at maximal concentration, read-out: Aggregation (% of Control), Collagen)?
The activity at 50 µg/mL was 0%.

What about the “inhibition of platelet aggregation caused by collagen, in words” value ([4]; collagen) of the same compound?
Its value is “inhibited aggregation of platelets; also recorded: inhibits platelet aggregation”.

What about the “inhibition of platelet aggregation caused by PAF, in words” value ([5]; PAF) of the same compound?
Its value is “inhibited aggregation of platelets; also recorded: inhibits platelet aggregation”.

And the activity at 5 µg/mL ([5]; Platelet, contignasterol 5 μg/ml, PAF at maximal concentration, read-out: Aggregation (% of Control), PAF)?
Its activity at 5 µg/mL is 90%.

And the activity at 10 µg/mL ([5]; Platelet, contignasterol 10 μg/ml, PAF at maximal concentration, read-out: Aggregation (% of Control), PAF)?
Its activity at 10 µg/mL is 56%.

And the activity at 20 µg/mL ([5]; Platelet, contignasterol 20 μg/ml, PAF at maximal concentration, read-out: Aggregation (% of Control), PAF)?
The activity at 20 µg/mL was 44%.

What about the activity at 30 µg/mL ([5]; Platelet, contignasterol 30 μg/ml, PAF at maximal concentration, read-out: Aggregation (% of Control), PAF) of the same compound?
The activity at 30 µg/mL was 28%.

What about the activity at 50 µg/mL ([5]; Platelet, contignasterol 50 μg/ml, PAF at maximal concentration, read-out: Aggregation (% of Control), PAF) of the same compound?
Its activity at 50 µg/mL is 0%.

With `CC(C)C1CC(O)OC([C@@H](C)[C@H]2CC(=O)[C@H]3[C@@H]4[C@@H](O)[C@H](O)[C@H]5[C@@H](O)[C@H](O)CC[C@]5(C)[C@H]4CC[C@]23C)C1` (stereo partly shown) [Compound 2, 14-epicontignasterol] as the compound, how does the “% Inhibition” value ([1]; 10 μM) read?
Its value is 25%.

What about the inhibition [1] of the same compound?
The inhibition was 25%.

Which “% Inhibition” value ([1]; 10 μM) does the source give for `COC1CC(C(C)C)CC([C@@H](C)[C@H]2CC(=O)[C@@H]3[C@@H]4[C@@H](O)[C@H](O)[C@H]5[C@@H](O)[C@H](O)CC[C@]5(C)[C@H]4CC[C@]23C)O1` (stereo partly shown) [Compound 3] here?
The value was 12%.

And the “change in potency on conversion of hemiacetal to methyl acetal, in words” value ([1]; 10 μM, methyl acetal (3) versus contignasterol (1))?
The value was “significant decrease in the potency”.

What about the inhibition [1] of the same compound?
The inhibition was 12%.

Which “inhibition of histamine release, in words” value [6] does the source give for `CC(C)C[C@]1(O)C[C@@H](C)[C@H]2[C@@H]1C(=O)[C@@H]1[C@@H]3[C@@H](O)[C@H](O)[C@H]4C[C@H](O)CC[C@]4(C)[C@H]3CC[C@]21C` [xestobergsterol A, 23S-16β, 23-cyclo-3α,6α,7β,23-tetrahydroxy-5α,14β-cholestan-15-one] here?
Its value is “potent inhibitors of histamine release”.

Which “inhibition of histamine release, in words” value [6] does the source give for `CC(C)C[C@]1(O)C[C@@H](C)[C@H]2[C@@H]1C(=O)[C@@H]1[C@@H]3[C@@H](O)[C@H](O)[C@H]4C[C@H](O)[C@@H](O)[C@@H](O)[C@]4(C)[C@H]3CC[C@]21C` [xestobergsterol B, 23S-16β,23-cyclo-1β,2β,3α,6α,7β,23-hexahydroxy-5α,14β-cholestan-15-one] here?
The value was “potent inhibitors of histamine release”.
